ChEMBL document CHEMBL1770073, “Synthesis of cinnamoyl ketoamides as hybrid structures of antioxidants and calpain inhibitors” (Bioorg Med Chem Lett, 2011)

How the values were obtained:
[1] = test system: Radical scavenging activity; test: Antioxidant activity assessed as DPPH free radical scavenging activity after 30 mins; type: functional
[2] = target: T1, Calpain-1 catalytic subunit (Homo sapiens, UniProt P07384); test: Inhibition of human erythrocytes mu-calpain using Suc-Leu-Tyr-AMC fluorogenic substrate after 30 mins by spectrofluorimetry
T1 sequence (P07384 whole entry): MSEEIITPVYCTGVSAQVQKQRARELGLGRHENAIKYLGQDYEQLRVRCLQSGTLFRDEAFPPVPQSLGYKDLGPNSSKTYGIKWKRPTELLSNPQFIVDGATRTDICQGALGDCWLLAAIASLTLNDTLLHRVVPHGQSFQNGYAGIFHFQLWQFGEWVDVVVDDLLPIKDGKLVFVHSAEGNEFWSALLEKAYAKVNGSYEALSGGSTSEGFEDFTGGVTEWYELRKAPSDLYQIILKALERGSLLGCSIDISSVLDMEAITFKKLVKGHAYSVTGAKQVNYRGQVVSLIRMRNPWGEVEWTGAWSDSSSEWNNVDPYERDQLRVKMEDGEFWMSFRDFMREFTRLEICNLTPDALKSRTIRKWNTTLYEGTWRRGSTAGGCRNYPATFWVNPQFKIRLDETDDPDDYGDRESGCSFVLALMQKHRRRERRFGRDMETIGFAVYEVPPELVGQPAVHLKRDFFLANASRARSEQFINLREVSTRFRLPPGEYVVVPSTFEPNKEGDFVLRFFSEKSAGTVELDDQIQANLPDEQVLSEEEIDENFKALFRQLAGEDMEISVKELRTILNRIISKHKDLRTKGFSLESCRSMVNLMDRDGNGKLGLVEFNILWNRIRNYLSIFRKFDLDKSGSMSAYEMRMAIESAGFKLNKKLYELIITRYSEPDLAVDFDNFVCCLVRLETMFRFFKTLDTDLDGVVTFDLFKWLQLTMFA

[3] = Antioxidant activity assessed as xanthine-xanthine oxidase generated superoxide anion scavenging after 20 mins; type: functional
Liver = test: Antioxidant activity in rat liver homogenates assessed as inhibition of lipid peroxidation by measuring formation of thiobarbituric acid-reactive substance after 30 mins; type: functional, tissue-based; conditions: 0.5 h

IC50 [1] [µM]	IC50 [2] [µM]	IC50 [3] [µM]	IC50 (Liver) [µM]	SMILES
> 100	0.07	> 100	> 100	Cc1c(C(=O)N[C@@H](Cc2ccccc2)C(=O)C(N)=O)oc2ccccc2c1=O
> 100	1.38	> 100	> 100	CCCC/C(=C\c1ccc(OC)c(OC)c1)C(=O)N[C@@H](Cc1ccccc1)C(=O)C(=O)NCCc1ccc(OC)cc1 (stereo in doubt)
44.6	0.32	41.7	6.06	CC(C)C/C(=C\c1ccc(O)c(O)c1)C(=O)N[C@@H](Cc1ccccc1)C(=O)C(=O)NCc1ccccc1 (stereo in doubt)
48.6	0.13	38	5.71	CCC/C(=C\c1ccc(O)c(O)c1)C(=O)N[C@@H](Cc1ccccc1)C(=O)C(=O)NCCc1ccc(OC)cc1 (stereo in doubt)
40.4	6.07	31.2	7.53	O=C(/C=C/c1ccc(O)c(O)c1)N[C@@H](Cc1ccccc1)C(=O)C(=O)NCc1ccccc1
45.5	0.61	15.5	6.09	CC/C(=C\c1ccc(O)c(O)c1)C(=O)N[C@@H](Cc1ccccc1)C(=O)C(=O)NCc1ccccc1 (stereo in doubt)
> 100	–	> 100	> 100	COc1ccc(OC)c(C(=O)CCC(=O)N[C@@H](Cc2ccccc2)C(=O)C(N)=O)c1
38.9	0.5	41.4	5.88	CCCC/C(=C\c1ccc(O)c(O)c1)C(=O)N[C@@H](Cc1ccccc1)C(=O)C(=O)NCCc1ccc(OC)cc1 (stereo in doubt)
42.2	0.36	27.1	6.15	CCC/C(=C\c1ccc(O)c(O)c1)C(=O)N[C@@H](Cc1ccccc1)C(=O)C(=O)NCc1ccccc1 (stereo in doubt)
46.1	0.46	29.2	6.4	CC/C(=C\c1ccc(O)c(O)c1)C(=O)N[C@@H](Cc1ccccc1)C(=O)C(=O)NCCc1ccc(OC)cc1 (stereo in doubt)
36.7	0.67	30.9	7.34	CCCC/C(=C\c1ccc(O)c(O)c1)C(=O)N[C@@H](Cc1ccccc1)C(=O)C(=O)NCc1ccccc1 (stereo in doubt)
30.8	–	> 100	> 100	O=C1O[C@H]([C@@H](O)CO)C(O)=C1O [ASCORBIC ACID]
> 100	0.63	> 100	36.1	CCCC/C(=C\c1ccc(O)c(OC)c1)C(=O)N[C@@H](Cc1ccccc1)C(=O)C(=O)NCCc1ccc(OC)cc1 (stereo in doubt)
–	–	–	71.4	Cc1c(C)c2c(c(C)c1O)CCC(C)(C(=O)O)O2 (stereo unspecified) [TROLOX]
